Results as given in patent US11384060B2, “Amide compounds and use thereof” (ALPHALA CO., LTD., priority 2017, dated 2022).
Where two headings read alike, the source gives them in different places.

What was measured:
[1] = target: T1, glucagon receptor (GCGR) (Homo sapiens, UniProt P47871); assay: I125-glucagon binding assay (competition, GCGR membrane fractions)
T1 construct: expressed in transfected cells; host or cells: CHO-K1 cells overexpressing GCGR (membrane fractions)
Outline: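 Membranes from CHO-K1 cells overexpressing GCGR, 7.5 μg/well in 50 mM Tris pH 7.4 with 0.5% BSA, were preincubated 5 min with serially diluted compounds, then given 0.0625 nM final I^125-glucagon for 30 min at 25° C. Bound label was filtered on PEI-coated GF/B and counted; IC50 by non-linear regression.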

[2] = target: T2, glucagon receptor (GCGR) overexpressed CHO-K1 cells or human primary hepatocytes (Homo sapiens, UniProt P47871); assay: Glucagon cAMP inhibition assay (Cisbio cAMP Dynamic 2 HTRF); format: cell-based
T2 construct: expressed in transfected cells; host or cells: GCGR overexpressed CHO-K1 cells or human primary hepatocytes (endogenous receptor)
T2 sequence (P47871 26-477): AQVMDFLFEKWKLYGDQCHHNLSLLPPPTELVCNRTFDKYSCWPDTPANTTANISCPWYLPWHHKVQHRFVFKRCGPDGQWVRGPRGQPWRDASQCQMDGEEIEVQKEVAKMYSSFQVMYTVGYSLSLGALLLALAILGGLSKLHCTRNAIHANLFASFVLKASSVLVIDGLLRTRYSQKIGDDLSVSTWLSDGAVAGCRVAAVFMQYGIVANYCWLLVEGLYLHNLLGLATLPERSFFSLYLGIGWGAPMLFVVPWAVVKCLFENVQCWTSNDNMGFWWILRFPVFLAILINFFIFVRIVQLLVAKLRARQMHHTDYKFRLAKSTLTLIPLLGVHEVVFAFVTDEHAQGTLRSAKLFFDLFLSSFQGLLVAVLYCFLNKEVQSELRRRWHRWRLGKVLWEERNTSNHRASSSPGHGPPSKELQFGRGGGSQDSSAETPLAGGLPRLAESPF
Outline: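 GCGR-overexpressing CHO-K1 cells or human primary hepatocytes in HBSS with 0.1% BSA and 800 nM IBMX, pre-incubated 30 min with serially diluted compounds (1% DMSO final), then stimulated 30 min at room temperature with glucagon at its EC50. cAMP measured by HTRF after 60 min lysis; IC50 by non-linear regression.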

[3] = competition with I125-glucagon 0.0625 nM, membrane fractions of GCGR overexpressed CHO-K1 cells
[4] = inhibition of glucagon (EC50 concentration) induced cAMP production

T1 sequence (P47871 26-477): as above

Row | SMILES | IC50 [1, 3] [µM] | IC50 cAMP [2, 4] [nM] | IC50 ([1]; uM) [µM] | IC50 cAMP [2] [nM] | IC50 [1] [µM]
1 | CCCC[C@@H](COc1ccc(-c2cc3ccccc3o2)nc1)Nc1ccc(C(=O)NCCC(=O)O)cc1 [Compound 10-12, (S)-3-(4-((1-((6-(benzofuran-2-yl)pyridin-3-yl)oxy)hexan-2-yl)amino)benzamido)propanoic Acid] | 0.181 | 791.6 | – | – | –
2 | CCCC[C@@H](COc1ccc(-c2ccc(C(C)(C)C)cc2)cc1)Nc1ccc(C(=O)NCCC(=O)O)cc1 [Compound 1-11, (S)-3-(4-((1-((4′-(tert-butyl)-[1,1′-biphenyl]-4-yl)oxy)hexan-2-yl)amino)benzamido)propanoic Acid] | 0.15 | 320.3 | – | – | –
3 | CC[C@H](C)[C@@H](COc1ccc(-c2ccc(C(F)(F)F)cc2)c(F)c1)Nc1ccc(C(=O)NCCC(=O)O)cc1 [Compound 8-14, 3-(4-(((2S,3S)-1-((2-fluoro-4′-(trifluoromethyl)-[1,1′-biphenyl]-4-yl)oxy)-3-methylpentan-2-yl)amino)benzamido)propanoic Acid] | 0.251 | 250 | – | – | –
4 | CC(C)[C@@H](COc1ccc(-c2ccc(C(F)(F)F)cc2F)c(F)c1)Nc1ccc(C(=O)NCCC(=O)O)cc1 [Compound 8-1, (S)-3-(4-((1-((2,2′-difluoro-4′-(trifluoromethyl)-[1,1′-biphenyl]-4-yl)oxy)-3-methylbutan-2-yl)amino)benzamido)propanoic Acid] | 0.112 | 61.9 | – | – | –
5 | CCCC[C@@H](COc1ccc(-c2ccc(C(F)(F)F)cc2)c(F)c1)Nc1ccc(C(=O)NCCC(=O)O)cc1 [Compound 8-18, (S)-3-(4-((1-((2-fluoro-4′-(trifluoromethyl)-[1,1′-biphenyl]-4-yl)oxy)hexan-2-yl)amino)benzamido)propanoic Acid] | 0.158 | 153.5 | – | – | –
6 | CCCC[C@@H](COc1ccc(-c2ccc(C(F)(F)F)cc2F)c(F)c1)Nc1ccc(C(=O)NCCC(=O)O)cc1 [Compound 8-17, (S)-3-(4-((1-((2,2′-difluoro-4′-(trifluoromethyl)-[1,1′-biphenyl]-4-yl)oxy)hexan-2-yl)amino)benzamido)propanoic Acid] | 0.308 | 227.6 | – | – | –
7 | CC(C)[C@@H](COc1ccc(-c2cc3ccccc3o2)cc1)Nc1ccc(C(=O)NCCC(=O)O)cc1 [Compound 1-2, (S)-3-(4-((1-(4-(benzofuran-2-yl)phenoxy)-3-methylbutan-2-yl)amino)benzamido)propanoic Acid] | 0.207 | 195.6 | – | – | –
8 | CC[C@H](C)[C@@H](COc1ccc(-c2ccc(Cl)cc2Cl)c(F)c1)Nc1ccc(C(=O)NCCC(=O)O)cc1 [Compound 8-11, 3-(4-(((2S,3S)-1-((2′,4′-dichloro-2-fluoro-[1,1′-biphenyl]-4-yl)oxy)-3-methylpentan-2-yl)amino)benzamido)propanoic Acid] | 0.051 | 269.1 | – | – | –
9 | CCCC[C@@H](COc1ccc(-c2ccc(C(F)(F)F)cc2)c(Cl)c1)Nc1ccc(C(=O)NCc2nnn[nH]2)cc1 [Compound 3-17, (S)—N-((1H-tetrazol-5-yl)methyl)-4-((1-((2-chloro-4′-(trifluoromethyl)-[1,1′-biphenyl]-4-yl)oxy)hexan-2-yl)amino)benzamide] | 0.111 | 105 | – | – | –
10 | CCCC[C@@H](COc1ccc(-c2ccc(C(F)(F)F)cc2Cl)nc1)Nc1ccc(C(=O)NCCC(=O)O)cc1 [Compound 10-11, (S)-3-(4-((1-((6-(2-chloro-4-(trifluoromethyl)phenyl)pyridin-3-yl)oxy)hexan-2-yl)amino)benzamido)propanoic Acid] | 0.27 | 537.4 | – | – | –
11 | CC(C)[C@@H](COc1ccc(-c2cc3ccccc3o2)c(Cl)c1)Nc1ccc(C(=O)NCCS(=O)(=O)O)cc1 [Compound 3-18, (S)-2-(4-((1-(4-(benzofuran-2-yl)-3-chlorophenoxy)-3-methylbutan-2-yl)amino)benzamido)ethane-1-sulfonic Acid] | 0.836 | >30000 | – | – | –
12 | CC(C)[C@@H](COc1ccc(-c2ccc(C(F)(F)F)cc2F)cc1)Nc1ccc(C(=O)NCCS(=O)(=O)O)cc1 [Compound 1-33, (S)-2-(4-((1-((2′-fluoro-4′-(trifluoromethyl)-[1,1′-biphenyl]-4-yl)oxy)-3-methylbutan-2-yl)amino)benzamido)ethane-1-sulfonic Acid] | 1.9 | 3767 | – | – | –
13 | CC[C@H](C)[C@@H](COc1ccc(-c2nnc(-c3ccccc3)o2)cc1)Nc1ccc(C(=O)NCCC(=O)O)cn1 [Compound 4-5, 3-(6-(((2S,3S)-3-methyl-1-(4-(5-phenyl-1,3,4-oxadiazol-2-yl)phenoxy)pentan-2-yl)amino)nicotinamido)propanoic Acid] | 0.708 | 11200 | – | – | –
14 | CC(C)[C@@H](COc1ccc(-c2ccc(C(F)(F)F)cc2Cl)nc1)Nc1ccc(C(=O)NCCC(=O)O)cn1 [Compound 11-1, (S)-3-(6-((1-((6-(2-chloro-4-(trifluoromethyl)phenyl)pyridin-3-yl)oxy)-3-methylbutan-2-yl)amino)nicotinamido)propanoic Acid] | 1.74 | 8711 | – | – | –

More lines, now with the values ahead:

Row | IC50 [1, 3] [µM] | IC50 cAMP [2, 4] [nM] | IC50 ([1]; uM) [µM] | IC50 cAMP [2] [nM] | IC50 [1] [µM] | SMILES
15 | – | – | > 10 | 1500 | – | CCOC(=O)CCNC(=O)c1ccc(N[C@H](CC(C)C)C(=O)Nc2ccc(-c3cc4ccccc4o3)cc2)cc1 [Compound 24-1]
16 | – | – | – | 258.8 | 0.753 | CC(C)[C@@H](COc1ccc(-c2ccc(C(F)(F)F)cc2)cn1)Nc1ccc(C(=O)NCCC(=O)O)cc1 [Compound 15-7, (S)-3-(4-((3-methyl-1-((5-(4-(trifluoromethyl)phenyl)pyridin-2-yl)oxy)butan-2-yl)amino)benzamido)propanoic Acid]
17 | 0.451 | 2357 | – | – | – | CCCC[C@@H](COc1cnc(-c2ccc(C(F)(F)F)cc2Cl)nc1)Nc1ccc(C(=O)NCCC(=O)O)cc1 [Compound 12-5, (S)-3-(4-((1-((2-(2-chloro-4-(trifluoromethyl)phenyl)pyrimidin-5-yl)oxy)hexan-2-yl)amino)benzamido)propanoic Acid]
18 | – | – | – | 7988 | 0.578 | CCOC(=O)CCNC(=O)c1ccc(N[C@H](Cc2ccc(-c3ccc(C(C)(C)C)cc3)cc2)C(=O)Nc2ccc(C(F)(F)F)cc2)cc1 [Compound 24-15, Ethyl (R)-3-(4-((3-(4′-(tert-butyl)-[1,1′-biphenyl]-4-yl)-1-oxo-1-((4-(trifluoromethyl)phenyl)amino)propan-2-yl)amino)benzamido)propanoate]
19 | – | – | – | 373 | 0.195 | CC(C)CC[C@@H](Cc1ccc(-c2ccc(C(F)(F)F)cc2)cc1)Nc1ccc(C(=O)NCCC(=O)O)cc1 [Compound 19-10, (S)-3-(4-((5-methyl-1-(4′-(trifluoromethyl)-[1,1′-biphenyl]-4-yl)hexan-2-yl)amino)benzamido)propanoic Acid]
20 | – | – | – | 198.4 | 0.08 | CC(C)C[C@@H](COc1ccc(-c2ccc(C(F)(F)F)cc2Cl)cn1)Nc1ccc(C(=O)NCCC(=O)O)cc1 [Compound 15-10, (S)-3-(4-((1-((5-(2-chloro-4-(trifluoromethyl)phenyl)pyridin-2-yl)oxy)-4-methylpentan-2-yl)amino)benzamido)propanoic Acid]
21 | – | – | – | 393.8 | 0.109 | CCCC[C@H](Cc1ccc(-c2ccc(C(F)(F)F)cc2)cc1)Nc1ccc(C(=O)NCCC(=O)O)cc1 [Compound 19-1, (R)-3-(4-((1-(4′-(trifluoromethyl)-[1,1′-biphenyl]-4-yl)hexan-2-yl)amino)benzamido)propanoic Acid]
22 | – | – | – | 22191 | 0.974 | CCC(C)[C@H](Nc1ccc(C(=O)NCCC(=O)O)cc1)c1nnc(-c2oc3ccccc3c2C)o1 (stereo partly drawn) [Compound 20-2, 3-(4-(((1S)-2-methyl-1-(5-(3-methylbenzofuran-2-yl)-1,3,4-oxadiazol-2-yl)butyl)amino)benzamido)propanoic Acid]
23 | – | – | – | 316 | 0.101 | O=C(O)CCNC(=O)c1ccc(N[C@H](COc2ccc(C(F)(F)F)cn2)c2ccc(-c3ccc(C(F)(F)F)cc3)cc2)cc1 [Compound 15-27, (S)-3-(4-((1-(4′-(trifluoromethyl)-[1,1′-biphenyl]-4-yl)-2-((5-(trifluoromethyl)pyridin-2-yl)oxy)ethyl)amino)benzamido)propanoic Acid]
24 | – | – | – | 1193 | 3.01 | O=C(O)CCNC(=O)c1ccc(N[C@@H](Cc2cccc3ccccc23)C(=O)Nc2ccc(-c3cc4ccccc4o3)cc2)cc1 [Compound 23-16]
25 | – | – | – | 1513 | 1.28 | CCCOC[C@H](Cc1ccc(-c2cccc(OC(F)(F)F)c2)cc1)Nc1ccc(C(=O)NCCC(=O)O)cc1 [Compound 19-25, (S)-3-(4-((1-propoxy-3-(3′-(trifluoromethoxy)-[1,1′-biphenyl]-4-yl)propan-2-yl)amino)benzamido)propanoic Acid]
26 | 0.057 | 71 | – | – | – | CC[C@H](C)[C@@H](COc1ccc(-c2ccc(C(F)(F)F)cc2Cl)c(OC)c1)Nc1ccc(C(=O)NCCC(=O)O)cc1 [Compound 13-3, 3-(4-(((2S,3S)-1-((2′-chloro-2-methoxy-4′-(trifluoromethyl)-[1,1′-biphenyl]-4-yl)oxy)-3-methylpentan-2-yl)amino)benzamido)propanoic Acid]
